Assay results reported in patent US20170143701A1, “CARBOHYDRATE METABOLISM-AMELIORATING AGENT” (SUNTORY HOLDINGS LIMITED, priority 2014, published 2017).

Test system: NCI-H716 cells
Test: In vitro GLP-1 secretion-accelerating action: amount of active GLP-1 secreted (ELISA)
Assay type: cell-based
Conditions: 1 hour; for Significant difference (p < 0.05) vs control group, amount of active GLP-1 secreted: 10 mM, Student's t-test; for Amount of active GLP-1 secreted (relative value to control group as 100), average value: cyclic dipeptide 10 mM with 10 μM Sitagliptin phosphate, group with no cyclic dipeptide = 100
Procedure: Among the cyclic dipeptides, 92 highly water-soluble cyclic dipeptides were used in the following experiment. In each well of a Poly-L-Lysine 96-well plate, NCI-H716 cells suspended in 100 μL of a DMEM (with 10% FBS, 2 mM glutamine, and 1% antibiotics added in advance) were seeded at 0.5×10^5 cells/well, and cultured in a CO2 incubator (manufactured by ESPEC CORP.) for 48 hours. After washing with PBS(+), 100 μL of a PBS(+) solution with each cyclic dipeptide at a final concentration of 10 mM and 10 μM of Sitagliptin phosphate added therein was added to the cells. After 1 hour, the resultant solution was recovered, and the amount of active GLP-1 in the solution was measured by using the ELISA kit. In the analysis, the amount of active GLP-1 for a group with no cyclic dipeptide added was defined as 100, and relative values thereto were used.

SMILES | Significant difference (p < 0.05) vs control group, amount of active GLP-1 secreted (Table 3, Experiment 3) | Amount of active GLP-1 secreted (relative value to control group as 100), average value (Table 3, Experiment 3) | Significant difference (p < 0.05) vs control group, amount of active GLP-1 secreted (Table 4, Experiment 4) | Amount of active GLP-1 secreted (relative value to control group as 100), average value (Table 4, Experiment 4)
CC(O)C1NC(=O)CNC1=O (stereo not drawn) [compound 116, Cyclo(Thr-Gly)] | No | 146 |  | 
NC(N)=NCCC[C@@H]1NC(=O)CNC1=O [compound 117, Cyclo(Arg-Gly)] | No | 98 |  | 
CC1NC(=O)CNC1=O (stereo not drawn) [compound 121, Cyclo(Gly-Ala)] | No | 153 |  | 
C[C@@H]1NC(=O)[C@H](CC(N)=O)NC1=O [compound 124, Cyclo(Asn-Ala)] | No | 116 |  | 
NC(=O)CC[C@@H]1NC(=O)CNC1=O [compound 126, cyclo-glutaminyl-glycine] | Yes | 210 |  | 
NC(=O)C[C@@H]1NC(=O)[C@H](CCC(=O)O)NC1=O [compound 129, Cyclo(Asn-Glu)] | No | 118 |  | 
NC(=O)CC[C@@H]1NC(=O)[C@H](CCC(=O)O)NC1=O [compound 130, Cyclo(Gln-Glu)] | No | 120 |  | 
NC(=O)CC[C@@H]1NC(=O)[C@H](CO)NC1=O [compound 136, Cyclo(Gln-Ser)] | No | 251 |  | 
CC(O)C1NC(=O)C(CCCCN)NC1=O (stereo not drawn) [compound 143, Cyclo(Thr-Lys)] | No | 105 |  | 
C[C@@H]1NC(=O)[C@H](CC(=O)O)NC1=O [compound 153, Cyclo(Asp-Ala)] | No | 94 |  | 
O=C1CNC(=O)[C@H](CO)N1 [compound 154, Cyclo(Ser-Gly)] | No | 116 |  | 
CC(O)C1NC(=O)C(CCC(=O)O)NC1=O (stereo not drawn) [compound 157, Cyclo(Thr-Glu)] | No | 139 |  | 
NC(N)=NCCC[C@@H]1NC(=O)[C@H](CO)NC1=O [compound 159, cyclo-arginyl-serine] | Yes | 135 |  | 
C[C@H](O)[C@@H]1NC(=O)[C@H](CC(=O)O)NC1=O [compound 165, Cyclo(Asp-Thr)] | No | 140 |  | 
C[C@H](O)[C@@H]1NC(=O)[C@H](CC(N)=O)NC1=O [compound 166, Cyclo(Asn-Thr)] | No | 149 |  | 
C[C@H](O)[C@@H]1NC(=O)[C@H](CCC(N)=O)NC1=O [compound 167, Cyclo(Gln-Thr)] | No | 156 |  | 
C[C@H](O)[C@@H]1NC(=O)[C@H](CCCN=C(N)N)NC1=O [compound 168, Cyclo(Arg-Thr)] | No | 142 |  | 
NC(=O)C[C@@H]1NC(=O)[C@H](CC(=O)O)NC1=O [compound 170, Cyclo(Asn-Asp)] | No | 125 |  | 
NC(=O)CCC1NC(=O)C(CC(=O)O)NC1=O (stereo not drawn) [compound 171, Cyclo(Gln-Asp)] | No | 120 |  | 
CSCCC1NC(=O)C(CC(=O)O)NC1=O (stereo not drawn) [compound 172, Cyclo(Met-Asp)] |  |  | No | 141
CSCCC1NC(=O)C(CC(N)=O)NC1=O (stereo not drawn) [compound 175, cyclo-asparaginyl-methionine] |  |  | Yes | 218
NC(=O)CCC1NC(=O)C(CCC(N)=O)NC1=O (stereo not drawn) [compound 176, Cyclo(Gln-Gln)] |  |  | No | 111
CSCC[C@@H]1NC(=O)[C@H](CCC(N)=O)NC1=O [compound 186, cyclo-glutaminyl-methionine] |  |  | Yes | 191
NC(=O)CCC1NC(=O)C2CCCN2C1=O (stereo not drawn) [compound 188, Cyclo(Gln-Pro)] |  |  | No | 132
N=C(N)NCCC[C@@H]1NC(=O)[C@H](Cc2c[nH]c3ccccc23)NC1=O [compound 189, cyclo-tryptophanyl-arginine] |  |  | Yes | 314
O=C(O)CCC1NC(=O)C(CO)NC1=O (stereo not drawn) [compound 192, cyclo-seryl-glutamic acid] |  |  | Yes | 
N=C(N)NCCC[C@@H]1NC(=O)[C@H](CC(N)=O)NC1=O [compound 197, cyclo-asparaginyl-arginine] |  |  | Yes | 359
NC(=O)CC1NC(=O)C2CCCN2C1=O (stereo not drawn) [compound 201, cyclo-asparaginyl-proline] |  |  | Yes | 430
N=C(N)NCCC[C@@H]1NC(=O)[C@H](CCCNC(=N)N)NC1=O [compound 212, cyclo-arginyl-arginine] |  |  | Yes | 1050
